This is an account of results in PMC6934184, “Selective DNA-PKcs inhibition extends the therapeutic index of localized radiotherapy and chemotherapy” (The Journal of Clinical Investigation, 2019).

The target of this assay is T1, ITK (Homo sapiens, UniProt Q08881).
T1 construct: purchased Thermo Fisher Scientific (Life Technologies) SelectScreen
As to the kind of experiment: SelectScreen Z'LYTE. Format: biochemical. In short, it runs like this:
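NU5455 was profiled across the SelectScreen Broad panel of kinase activity and binding assays. Z'LYTE reactions such as CSF1R ran at apparent Km ATP, while the Adapta CAMK1 assay used ATP listed as 10. Values are given as percent.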

T1 sequence (Q08881 whole entry): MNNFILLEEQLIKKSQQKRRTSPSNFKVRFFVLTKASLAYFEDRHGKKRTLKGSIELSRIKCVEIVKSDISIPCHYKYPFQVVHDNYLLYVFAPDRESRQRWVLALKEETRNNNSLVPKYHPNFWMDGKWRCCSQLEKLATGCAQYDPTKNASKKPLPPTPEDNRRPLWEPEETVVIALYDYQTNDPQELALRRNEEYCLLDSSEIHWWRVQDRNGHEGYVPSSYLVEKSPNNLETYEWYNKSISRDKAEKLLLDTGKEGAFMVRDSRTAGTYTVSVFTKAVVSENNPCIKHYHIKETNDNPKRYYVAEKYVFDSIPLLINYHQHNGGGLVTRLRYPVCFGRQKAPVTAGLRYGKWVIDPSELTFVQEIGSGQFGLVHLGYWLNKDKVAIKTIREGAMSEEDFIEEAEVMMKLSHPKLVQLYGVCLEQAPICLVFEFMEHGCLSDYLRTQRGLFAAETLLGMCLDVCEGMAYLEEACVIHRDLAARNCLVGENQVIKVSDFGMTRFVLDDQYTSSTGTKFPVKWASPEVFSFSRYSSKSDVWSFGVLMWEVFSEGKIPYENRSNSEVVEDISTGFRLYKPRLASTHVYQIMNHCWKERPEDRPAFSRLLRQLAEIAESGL

The compound `CN(C(=O)CN1CCOCC1)c1ccc2sc3c(-c4cccc5c(=O)cc(N6CC7CCC(C6)O7)oc45)cccc3c2c1` [NU5455] registered an inhibition at 1 µM of 5.5%.
